# Test results as given in US5194605A, “Cyclic renin inhibitors containing 2-substituted (3S,4S)-4-amino-5-cyclohexyl-3-hydroxy pentanoic acid, 2-substituted (3S,4S)-5-cyclohexyl-3,4-di-hydroxy pentanoic acid or 2-substituted (4S,5S)-5-amino-6-cyclohexyl-4-hydroxyhexanoic acid or its analogs” (Merck & Co., Inc., priority 1991, dated 1993).
# Where two headings read alike, the source gives them in different places. Square brackets hold non-standard residues; d marks the D form. Peptide text beside a SMILES is read from it. * marks the point of attachment. Sta = CC(C)C[C@H](N)[C@@H](O)CC(=O)O; Isovaleryl = CC(C)CC(=O)*
# Assays:
# [1] = amide bond, DPPA, Et3N, DMF, 1.75 mM, 4.0 °C
# [2] = test system: conscious sodium-deficient Rhesus monkeys; assay: intravenous evaluation of renin inhibitors in conscious sodium-deficient Rhesus monkeys (blood pressure lowering); format: in vivo, Rhesus monkey; conditions: i.v. bolus, mean arterial pressure
# From the text: The following methods were used for in vivo evaluation of the renin inhibitors of Formula I: Intravenous evaluation of renin inhibitors in concious sodium-deficient Rhesus monkeys: Rhesus monkeys, male and female, weighing 2.6-4.5 Kg, were surgically prepared with chronic arterial and venous catheters and vascular access ports for direct monitoring of mean arterial pressure (MAP) and heart rate (HR). The animals were maintained on a low sodium diet (1.2 mmol Na/day) plus friut for a week, and administered LASIX (furosemide) at 2.5 mg/Kg, intramuscularly the evening prior to the experiment. […] The inhibitors were administered by bolus injection using 0.5% acetic acid-5% dextrose in water as the vehicle (0.4 ml/Kg), and MAP and HR were measured. […] PRA was determined as described above. […] A projected ED50 dose for each inhibitor was calculated using the following furmula: ED50 (Test Inhibitor, umoles/Kg)=ED50 (SCRIP)×[IC50 (Test Inhibitor)/IC50 (SCRIP)], where the IC50 values were determined against human plasma renin. […] Percent inhibition of monkey PRA, changes in MAP and HR were calculated and plotted against time. […] The inhibitors were administered orally as a solution (2.5 ml/Kg) in 0.1M citric acid, and MAP and HR were measured over time. […] Percent inhibition of primate PRA and peak changes in MAP and HR were calculated. […]
smiles,measurement,setting,value
COC(=O)[C@H]1CCCCNC(=O)CC[C@H](NC(=O)OC(C)(C)C)C(=O)N[C@@H](CC2CCCCC2)[C@H]1O,"ring closure, yield of all isomers","[1]; from COC(=O)[C@@H](CCCCN)[C@H](O)[C@H](CC1CCCCC1)NC(=O)[C@H](CCC(=O)O)NC(=O)OC(C)(C)C, 120.3 h",62%
CC[C@H](C)CNC(=O)[C@H]1CCCNC(=O)CC[C@H](NC(=O)OC(C)(C)C)C(=O)N[C@@H](CC2CCCCC2)[C@H]1O,"ring closure, yield of all isomers","[1]; from CC[C@H](C)CNC(=O)[C@@H](CCCN)[C@H](O)[C@H](CC1CCCCC1)NC(=O)[C@H](CCC(=O)O)NC(=O)OC(C)(C)C, 145.0 h",18%
"CC(C)CC(=O)N[C@@H](Cc1cnc[nH]1)C(=O)N1CCC[C@H]1C(=O)N[C@@H](Cc1ccccc1)C(=O)N[C@@H](Cc1cnc[nH]1)C(=O)N[C@@H](CC(C)C)[C@@H](O)CC(=O)N[C@@H](CC(C)C)C(=O)N[C@@H](Cc1ccccc1)C(N)=O [SCRIP, Iva-His-Pro-Phe-His-Sta-Leu-Phe-NH2] (Isovaleryl-HPFH[Sta]LF-NH2)",ED50 (i.v. dose required to lower blood pressure by 50% of the maximal response),[2],0.039 µmol/kg
CC[C@H](C)CNC(=O)[C@H]1CCCCNC(=O)CC[C@H](NC(=O)OC(C)(C)C)C(=O)N[C@@H](CC2CCCCC2)[C@H]1O,"ring closure, yield of all isomers","[1]; from CC[C@H](C)CNC(=O)[C@@H](CCCCN)[C@H](O)[C@H](CC1CCCCC1)NC(=O)[C@H](CCC(=O)O)NC(=O)OC(C)(C)C, 120.3 h, 2 steps",62%
